Source: patent US20230044787A1, “TRICYCLE DIHYDROIMIDAZOPYRIMIDONE DERIVATIVE, PREPARATION METHOD THEREOF, PHARMACEUTICAL COMPOSITION AND USE THEREOF” (priority 2019, published 2023)

The compounds below were run against T1, Lp-PLA2 (Homo sapiens, UniProt Q13093) (assay: Lipoprotein-associated phospholipase A2 (Lp-PLA2) human plasma assay (Thio-PAF assay)). Conditions: Comparison of activity data (I); pooled human plasma, 2-thio-PAF substrate, 30-min pre-incubation.
T1 construct: aliquoted and thawed 40 μL of pooled human plasma was previously added; from tissue; host or cells: pooled human plasma
T1 sequence (Q13093 22-441): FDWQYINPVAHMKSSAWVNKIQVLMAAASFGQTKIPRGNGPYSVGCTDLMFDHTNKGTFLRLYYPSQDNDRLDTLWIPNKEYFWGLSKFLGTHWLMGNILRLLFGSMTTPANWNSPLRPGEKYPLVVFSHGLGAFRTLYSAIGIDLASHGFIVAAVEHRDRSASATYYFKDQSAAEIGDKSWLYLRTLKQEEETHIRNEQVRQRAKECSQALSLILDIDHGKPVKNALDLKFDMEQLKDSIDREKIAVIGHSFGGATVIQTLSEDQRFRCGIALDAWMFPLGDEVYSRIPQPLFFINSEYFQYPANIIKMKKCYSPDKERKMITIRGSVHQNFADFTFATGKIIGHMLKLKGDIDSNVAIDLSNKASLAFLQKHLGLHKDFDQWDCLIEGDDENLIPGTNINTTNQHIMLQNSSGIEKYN
Format: biochemical

Row | SMILES | IC50 [nM]
1 | CC12COCCN1c1cc(OCc3cc(F)c(F)c(F)c3)nc(=O)n1C2 (stereo not drawn) [Example 86] | 6.1

Same assay, conditions: Lp-PLA2 human plasma assay (Thio-PAF), pooled human plasma, 30-min pre-incubation at room temperature

Row | SMILES | IC50 [nM]
2 | CCC12CCCN1c1cc(OCc3cc(F)c(Oc4cnc(C(F)(F)F)nc4)c(F)c3)nc(=O)n1C2 (stereo not drawn) [Example 64, 3-((3,5-difluoro-4-((2-(trifluoromethyl)pyrimidin-5-yl)oxy)benzyl)oxy)-8a-ethyl-7,8,8a,9-tetrahydro-1H,6H-pyrrolo[1′,2′:3,4]imidazo [1,2-c]pyrimidin-1-one] | 22.6
3 | CCC12CCCN1c1cc(OCc3ccc(Oc4cc(C#N)cc(C(F)(F)F)c4)c(F)c3)nc(=O)n1C2 (stereo not drawn) [Example 65] | 12.1
4 | CC12CCCCN1c1cc(OCc3cc(F)c(Oc4ccnc(C(F)(F)F)c4)c(F)c3)nc(=O)n1C2 (stereo not drawn) [Example 66, 3-((3,5-difluoro-4-((2-(trifluoromethyl)pyridin-4-yl)oxy)benzyl)oxy)-9a-methyl-6,7,8,9,9a,10-hexahydro-1H-pyrido[1′,2′:3,4]imidazo [1,2-c]pyrimidin-1-one] | 6.9
5 | CC12CCCCN1c1cc(OCc3cc(F)c(Oc4cnc(C(F)(F)F)nc4)c(F)c3)nc(=O)n1C2 (stereo not drawn) [Example 67, 3-((3,5-difluoro-4-((2-(trifluoromethyl)pyrimidin-5-yl)oxy)benzyl)oxy)-9a-methyl-6,7,8,9,9a,10-hexahydro-1H-pyrido[1′,2′:3,4]imidazo [1,2-c]pyrimidin-1-one] | 8.7
6 | Cn1cc(Oc2c(F)cc(COc3cc4n(c(=O)n3)CC3(C)CCCCN43)cc2F)cn1 (stereo not drawn) [Example 68, 3-((3,5-difluoro-4-((1-methyl-1H-pyrazol-4-yl)oxy)benzyl)oxy)-9a-methyl-6,7,8,9,9a,10-hexahydro-1H-pyrido[1′,2′:3,4]imidazo [1,2-c]pyrimidin-1-one] | 50
7 | CC12CCCCN1c1cc(OCc3ccc(Oc4ccc(F)c(C(F)(F)F)c4)nc3)nc(=O)n1C2 (stereo not drawn) [Example 69, 3-((6-(4-fluoro-3-(trifluoromethyl)phenoxy)pyridin-3-yl)methoxy)-9a-methyl-6,7,8,9,9a,10-hexahydro-1H-pyrido[1,2′:3,4]imidazo [1,2-c]pyrimidin-1-one] | 325
8 | CC12CCCCN1c1cc(OCc3ccc(Oc4ccc(Cl)c(C(F)(F)F)c4)c(C#N)c3)nc(=O)n1C2 (stereo not drawn) [Example 70, 2-(4-chloro-3-(trifluoromethyl)phenoxy)-5-(((-9a-methyl-1-oxo-6,7,8,9,9a,10-hexahydro-1H-pyrido[1′,2′:3,4]imidazo [1,2-c]pyrimidin-3-yl)oxy)methyl)benzonitrile] | 6.9
9 | CC12CCCCN1c1cc(OCc3ccc(Oc4cccc(C(F)(F)F)c4)c(C#N)c3)nc(=O)n1C2 (stereo not drawn) [Example 71, 5-(((-9a-methyl-1-oxo-6,7,8,9,9a,10-hexahydro-1H-pyrido[1′,2′:3,4]imidazo [1,2-c]pyrimidin-3-yl)oxy)methyl)-2-(3-(trifluoromethyl)phenoxy) benzonitrile] | 7.9
10 | CC12CCCCN1c1cc(OCc3ccc(Oc4ccc(Cl)c(F)c4)c(C#N)c3)nc(=O)n1C2 (stereo not drawn) [Example 72, 2-(4-chloro-3-fluorophenoxy)-5-(((-9a-methyl-1-oxo-6,7,8,9,9a,10-hexahydro-1H-pyrido[1′,2′:3,4]imidazo [1,2-c]pyrimidin-3-yl)oxy)methyl)benzonitrile] | 7.6
11 | CC12CCCCN1c1cc(OCCc3ccc(Oc4ccc(Cl)c(C(F)(F)F)c4)cc3)nc(=O)n1C2 (stereo not drawn) [Example 73, 3-(4-(4-chloro-3-(trifluoromethyl)phenoxy)phenethoxy)-9a-methyl-6,7,8,9,9a,10-hexahydro-1H-pyrido[1′,2′:3,4]imidazo [1,2-c]pyrimidin-1-one] | 4.8
12 | CC12CCCCN1c1cc(OCc3ccc(F)c(F)c3)nc(=O)n1C2 (stereo not drawn) [Example 74, 3-((3,4-difluorobenzyl)oxy)-9a-methyl-6,7,8,9,9a,10-hexahydro-1H-pyrido [1′,2′:3,4]imidazo[1,2-c]pyrimidin-1-one] | 22.3
13 | CCC12CCCCN1c1cc(OCc3cc(F)c(Oc4ccnc(C(F)(F)F)c4)c(F)c3)nc(=O)n1C2 (stereo not drawn) [Example 75, 3-((3,5-difluoro-4-((2-(trifluoromethyl)pyridin-4-yl)oxy)benzyl)oxy)-9a-ethyl-6,7,8,9,9a,10-hexahydro-1H-pyrido[1′,2′:3,4]imidazo [1,2-c]pyrimidin-1-one] | 23.4
14 | CCC12CCCCN1c1cc(OCc3cc(F)c(Oc4ccc(C(F)(F)F)nc4)c(F)c3)nc(=O)n1C2 (stereo not drawn) [Example 76, 3-((3,5-difluoro-4-((6-(trifluoromethyl)pyridin-3-yl)oxy)benzyl)oxy)-9a-ethyl-6,7,8,9,9a,10-hexahydro-1H-pyrido[1′,2′:3,4]imidazo [1,2-c]pyrimidin-1-one] | 42.2
15 | CCC12CCCCN1c1cc(OCc3ccc(Oc4cccc(C(F)(F)F)c4)c(C#N)c3)nc(=O)n1C2 (stereo not drawn) [Example 77, 5-(((9a-ethyl-1-oxo-6,7,8,9,9a,10-hexahydro-1H-pyrido[1′,2′:3,4]imidazo [1,2-c]pyrimidin-3-yl)oxy)methyl)-2-(3-(trifluoromethyl)phenoxy) benzonitrile] | 5.7
16 | CC12COCCN1c1cc(OCc3cc(F)c(Oc4ccnc(C(F)(F)F)c4)c(F)c3)nc(=O)n1C2 (stereo not drawn) [Example 78, 7-((3,5-difluoro-4-((2-(trifluoromethyl)pyridin-4-yl)oxy)benzyl)oxy)-11a-methyl-3,4,11,11a-tetrahydro-1H,9H-pyrimido[6′,1′:2,3]imidazo [5,1-c][1,4]oxazin-9-one] | 5
17 | Cc1cc(Oc2c(F)cc(COc3cc4n(c(=O)n3)CC3(C)COCCN43)cc2F)ccn1 (stereo not drawn) [Example 79, 7-((3,5-difluoro-4-((2-methyl-pyridin-4-yl)oxy)benzyl)oxy)-11a-methyl-3,4,11,11a-tetrahydro-1H,9H-pyrimido[6′,1′:2,3]imidazo [5,1-c][1,4]oxazin-9-one] | 6.1
18 | CC12COCCN1c1cc(OCc3cc(F)c(Oc4cncc(C(F)(F)F)c4)c(F)c3)nc(=O)n1C2 (stereo not drawn) [Example 80, 7-((3,5-difluoro-4-((5-(trifluoromethyl)pyridin-3-yl)oxy)benzyl)oxy)-11a-methyl-3,4,11,11a-tetrahydro-1H,9H-pyrimido[6′,1′:2,3]imidazo [5,1-c][1,4]oxazin-9-one] | 3.3
19 | CC12COCCN1c1cc(OCc3cc(F)c(Oc4ccc(C(F)(F)F)nc4)c(F)c3)nc(=O)n1C2 (stereo not drawn) [Example 81, 7-((3,5-difluoro-4-((6-(trifluoromethyl)pyridin-3-yl)oxy)benzyl)oxy)-11a-methyl-3,4,11,11a-tetrahydro-1H,9H-pyrimido[6′,1′:2,3]imidazo [5,1-c][1,4]oxazin-9-one] | 5.1
20 | CC12COCCN1c1cc(OCc3cc(F)c(Oc4ccc(Cl)c(C(F)(F)F)c4)c(F)c3)nc(=O)n1C2 (stereo not drawn) [Example 82, 7-((4-(4-chloro-3-(trifluoromethyl)phenoxy)-3,5-difluorobenzyl)oxy)-11a-methyl-3,4,11,11a-tetrahydro-1H,9H-pyrimido[6′,1′:2,3]imidazo [5,1-c][1,4]oxazin-9-one] | 2
21 | CC12COCCN1c1cc(OCc3ccc(Oc4cc(C#N)cc(C(F)(F)F)c4)c(F)c3)nc(=O)n1C2 (stereo not drawn) [Example 83] | 4.9
22 | CC12COCCN1c1cc(OCc3ccc(Oc4ccc(Cl)c(C(F)(F)F)c4)c(C#N)c3)nc(=O)n1C2 (stereo not drawn) [Example 84] | 6.2
23 | CC12COCCN1c1cc(OCc3ccc(Oc4cccc(C(F)(F)F)c4)c(C#N)c3)nc(=O)n1C2 (stereo not drawn) [Example 85] | 6.7
24 | CC12COCCN1c1cc(OCc3cc(F)c(F)c(F)c3)nc(=O)n1C2 (stereo not drawn) [Example 86] | 6.1
